# From US12521397B2, “Nucleotide analogs” (The Regents of the University of California, priority 2014, dated 2026)
# Like-named read-outs stand apart in the source and are kept apart here.
# What was measured:
# HPV-16 and HPV-18 = assay: High risk HPV origin plasmid replication assay (qPCR) in HEK 293 cells; format: cell-based, human papillomavirus; details: read-out: High Risk (EC50)
# Method: (§1) An origin-containing low risk or high risk HPV plasmid was co-transfected with homologous E1 and E2 protein expression vectors into HEK 293 cells. At 4 h post-transfection, cells were treated with test compound dilutions and then incubated for 48 h. HPV origin plasmid replication was detected after digestion with DpnI and exonuclease III to remove unreplicated transfected plasmids. Remaining replicated DNA was quantified by quantitative real time PCR (qPCR). In a parallel experiment in uninfected cells cytotoxicity was determined by trypan blue exclusion or CELLTITER-GLO® to find the concentration that reduced viable cell number by 50% (CC50). CC50 values were determined by trypan blue exclusion or CELLTITER-GLO® and the selectivity index calculated (Selectivity index=CC50/EC50). The low risk HPV tested was HPV-11, and the high-risk HPV tested was HPV-16 and HPV-18.
# HPV-11 = assay: Low risk HPV origin plasmid replication assay (qPCR) in HEK 293 cells; format: cell-based, human papillomavirus
# Method: as §1
# [1] = system: human foreskin fibroblast (HFF) cells; assay: Cytotoxicity assay in primary human foreskin fibroblast cells (CellTiter-Glo); format: cell-based; details: 7d incubation
# Method: Cytotoxicity Assays in Primary Human Foreskin Fibroblast Cells. Cytotoxicity was also evaluated in human foreskin fibroblast (HFF) cells as they are a highly sensitive indicator of toxicity in a standard assay with 7 d of compound exposure. A total of 4000 cells/well are seeded in 384-well plates in cell culture media containing 2% fetal bovine serum and antibiotics. Following a 24 h incubation, 5-fold compound dilutions are performed in duplicate wells directly in the plates containing monolayers of HFF cells. At 7 d following compound addition, CellTiter-Glo reagent is added to each well and resulting luminescence is measured on a luminometer to assess the number of viable cells in each well. Data are then used to calculate CC50 values.
# HEK-293 cells = assay: Cytotoxicity assay in HEK-293 cells (trypan blue exclusion or CellTiter-Glo); format: cell-based
# Method: as §1
# Cytotoxicity Assays in HEK-293 cells. Cytotoxicity assays are performed in concurrently with every antiviral assay using the same cell line and media to ensure the same compound exposure. For the antiviral studies against HPV11 in HEK-293 cells, transfected cells are seeded in duplicate plates. […] At 48 h following compound addition, CELLTITER-GLO® (Promega) is added to each well and luminescence is determined on a luminometer. […]
# [2] = low risk HPV tested was HPV-11, HEK 293 cells, 48 h incubation, read-out: Low Risk (EC50)
smiles,measurement,setting,value
"CCCCCCCCCCCCCCCCCCOCC(COP(=O)(O)COCCn1cnc2c(=O)[nH]c(N)nc21)OCc1ccccc1 (stereo not shown) [ODBG-PMEG, 1-O-Octadecyl-2-O-benzyl-sn-glyceryl PMEG]",EC50,"HPV-16 and HPV-18; Human papillomavirus, HEK293, 48 h",0.3 to 3 µM
same,EC50,"HPV-11; Human papillomavirus, HEK293, low risk HPV tested was HPV-11, HEK 293 cells, 48 h incubation, read-out: Low Risk (EC50)",0.3 to 3 µM
CCOC(=O)[C@H](C)NP(=O)(COCCn1cnc2c(=O)[nH]c(N)nc21)Oc1ccccc1 (stereo partly shown) [PMEG phenoxy amidate Example 10],CC50,[1],70.9 ± 4.07 µM
same,CC50,"HEK-293 cells; CellTiter-Glo, 2d incubation, read-out: Cytotoxicity CC50, HEK 293 (2d incubation)",> 100 µM
same,CC50,"HEK-293 cells; Table B, HEK-293 cells, parallel to HPV-11 antiviral assay, read-out: CC50",> 100 µM
same,EC50,"HPV-11; Human papillomavirus, HEK293",7.56 ± 0.63 µM
same,EC90,"HPV-11; Human papillomavirus, HEK293",> 100 µM
"Nc1nc2c(ncn2CCOCP(=O)(O)O)c(=O)[nH]1 [PMEG, 9-(2-phosphonylmethoxyethyl) guanine, reference compound]",EC50,HPV-11; [2],3 to 30 µM
"CCCCCCCCCCCCCCCCCCOCCOP(=O)(O)COCCn1cnc2c(=O)[nH]c(N)nc21 [ODE-PMEG, Octadecyloxyethyl-Phosphonomethoxyethylguanine]",EC50,"HPV-16 and HPV-18; high-risk HPV tested was HPV-16 and HPV-18, HEK 293 cells, 48 h incubation",< 0.3 µM
same,EC50,HPV-11; [2],< 0.3 µM
